From patent US20230321253A1, “BIFUNCTIONAL COMPOUNDS AND PHARMACEUTICAL USES THEREOF” (RISEN (SUZHOU) PHARMA TECH CO., LTD., priority 2022, published 2023)
pIC50: −log10 of the molar value.

Legend:
KRAS-G12D protein = molecular target: T1, KRAS-G12D protein (Homo sapiens, UniProt P01116, G12D); assay: KRAS-G12D protein degradation study in Aspc-1 cells (western blot); type: cell-based; details: for inhibition at 1 µM / inhibition at 0.1 µM / inhibition at 0.05 µM: ASPC1, 24 h; for inhibition at 1 µM: Aspc-1 cells treated with 1 μM compound; for inhibition at 1 µM / inhibition at 0.1 µM: read-out: Rate of protein degradation (KRAS^G12D); for inhibition at 0.05 µM: Aspc-1 cells treated with 50 nM compound, read-out: Rate of degradation (KRAS^G12D); for DC50: Aspc-1 cells, read-out: DC50 of test compound-induced KRAS^G12D protein degradation
T1 construct: host or cells: Aspc-1 cells
T1 sequence (P01116 1-188 isoform P01116-2 G12D): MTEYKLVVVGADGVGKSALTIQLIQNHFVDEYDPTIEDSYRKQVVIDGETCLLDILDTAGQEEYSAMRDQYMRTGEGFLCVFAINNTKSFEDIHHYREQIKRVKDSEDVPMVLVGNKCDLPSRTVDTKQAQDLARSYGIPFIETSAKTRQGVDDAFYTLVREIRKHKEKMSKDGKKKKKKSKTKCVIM
Method in brief: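 AsPC-1 cells were treated with compound for 24 h at 37° C (0.1% DMSO final), then lysed; KRAS levels measured by western blot. Degradation % = 1 − (KRAS/GAPDH, compound) ÷ (KRAS/GAPDH, DMSO), ×100; DC50 derived from concentration curves.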

Aspc-1 cells = assay: Cell proliferation study in Aspc-1 cells (Cell Titer Glo); type: cell-based; details: Homo sapiens, ASPC1, 72 hours, read-out: IC50, inhibitory effect on cellular proliferation
Experimental: Aspc-1 (Cobioer, CBP60546) cells were grown in RPMI 1640 (Gibco, 61870127) supplemented with 10% fetal bovine serum (Gibco, 10099141), 1% penicillin-streptomycin (Gibco, 15070-063). Aspc-1 cells in exponential growth phase were seeded into 96-well plate (Corning, 3599) at density of 4×10^3/well. Cells were cultured overnight at 37° C. with 5% CO2. On the next day, cells were treated with test compound at various concentrations for 72 hours in 37° C., 5% CO2 incubator (final DMSO concentration was 0.1%). After treatment, 100 μL Cell Tier Glo (Promega, G7573) was added to every well of the cell plates and the plates were incubated at room temperature (RT) for 10 minutes. Cell growth status was measured with Cell Tier Glo (Promega, G7573) following the manufacturer's instructions. The inhibition curve was obtained with GraphPad 7.0 software using four-parameter equation.

[1] = Aspc-1 cells treated with 0.1 μM compound, 24 hours

For C#Cc1c(F)ccc2cc(O)cc(-c3ncc4c(N5CC6CCC(C5)N6)nc(OC5CCN(CCCCCCCCCCCCCC(=O)N[C@H](C(=O)N6C[C@H](O)C[C@H]6C(=O)NCc6ccc(-c7scnc7C)cc6)C(C)(C)C)CC5)nc4c3F)c12 [Compound 47], the inhibition at 1 µM (KRAS-G12D protein; 24 hours) was 31 to 60% and the pIC50 (Aspc-1 cells) was 5.30 to 6.00.

With C#Cc1c(F)ccc2cc(O)cc(-c3ncc4c(N5CC6CCC(C5)N6)nc(OC5CCN(CCCCCCCCCC(=O)N[C@H](C(=O)N6C[C@H](O)C[C@H]6C(=O)NCc6ccc(-c7scnc7C)cc6)C(C)(C)C)CC5)nc4c3F)c12 [Compound 41] the inhibition at 1 µM (KRAS-G12D protein; 24 hours) was over 60% and the pIC50 (Aspc-1 cells) was 6.00 to 7.00.

With C#Cc1c(F)ccc2cc(O)cc(-c3ncc4c(N5CC6CCC(C5)N6)nc(OC5CCN(CCCCCCCCCCC(=O)N[C@H](C(=O)N6C[C@H](O)C[C@H]6C(=O)N[C@@H](C)c6ccc(-c7scnc7C)cc6)C(C)(C)C)CC5)nc4c3F)c12 [Compound 45] the inhibition at 0.1 µM (KRAS-G12D protein; [1]) was 31 to 60%, the inhibition at 1 µM (KRAS-G12D protein; 24 hours) was over 60% and the pIC50 (Aspc-1 cells) was 6.00 to 7.00.

Work on C#Cc1c(F)ccc2cc(O)cc(-c3ncc4c(N5CC6CCC(C5)N6)nc(OCC5(CN6CCC7(CC6)CC(N6CCN(c8ccc(NC9CCC(=O)NC9=O)cc8F)CC6)C7)CC5)nc4c3F)c12 (centres unmarked) [Compound 150] yielded an inhibition at 0.05 µM (KRAS-G12D protein; 24 hours) of over 60%, a DC50 (KRAS-G12D protein) of under 10 nM and a pIC50 (Aspc-1 cells) of over 7.00.

With C#Cc1c(F)ccc2cc(O)cc(-c3ncc4c(N5CC6CCC(C5)N6)nc(OCC5(CN6CCN(C(=O)CN7CCC(c8ccc9c(C%10CCC(=O)NC%10=O)nn(C)c9c8)CC7)CC6)CC5)nc4c3F)c12 (centres unmarked) [Compound 92] the “Rate of protein degradation (KRAS^G12D)” value (KRAS-G12D protein; [1]) was “+++ (greater than 60%)”, the DC50 (KRAS-G12D protein) was under 10 nM and the pIC50 (Aspc-1 cells) was over 7.00.

CCc1c(F)ccc2cc(O)cc(-c3ncc4c(N5CC6CCC(C5)N6)nc(OC5CCN(CCCCCCCCCCC(=O)N[C@H](C(=O)N6C[C@H](O)C[C@H]6C(=O)NCc6ccc(-c7scnc7C)cc6)C(C)(C)C)CC5)nc4c3F)c12 [Compound 44] gave an inhibition at 1 µM (KRAS-G12D protein; 24 hours) of 31 to 60% and a pIC50 (Aspc-1 cells) of 5.30 to 6.00.

Work on C#Cc1c(F)ccc2cc(O)cc(-c3ncc4c(N5CC6CCC(C5)N6)nc(OCC5(CN6CCC(CN7CCN(c8cccc9c8C(=O)N(C8CCC(=O)NC8=O)C9=O)CC7)CC6)CC5)nc4c3F)c12 (centres unmarked) [Compound 135] yielded an inhibition at 0.05 µM (KRAS-G12D protein; 24 hours) of 31 to 60%, a DC50 (KRAS-G12D protein) of under 10 nM and a pIC50 (Aspc-1 cells) of over 7.00.

C#Cc1c(F)ccc2cc(O)cc(-c3ncc4c(N5CC6CCC(C5)N6)nc(OCC5(CN6CCCN(C(=O)CN7CCC(c8ccc9c(C%10CCC(=O)NC%10=O)nn(C)c9c8)CC7)CC6)CC5)nc4c3F)c12 (centres unmarked) [Compound 155] was tested, and the inhibition at 0.05 µM (KRAS-G12D protein; 24 hours) was over 60%, the DC50 (KRAS-G12D protein) was 11 to 50 nM and the pIC50 (Aspc-1 cells) was over 7.00.

For C#Cc1c(F)ccc2cc(O)cc(-c3ncc4c(N5CC6CCC(C5)N6)nc(OCCCN5CCN(CCCCCCC(=O)N[C@H](C(=O)N6C[C@H](O)C[C@H]6C(=O)NCc6ccc(-c7scnc7C)cc6)C(C)(C)C)CC5)nc4c3F)c12 [Compound 29], the inhibition at 1 µM (KRAS-G12D protein; 24 hours) was 31 to 60% and the pIC50 (Aspc-1 cells) was 5.30 to 6.00.

In the case of C#Cc1c(F)ccc2cc(O)cc(-c3ncc4c(N5CC6CCC(C5)N6)nc(OCC5(CN6CCC7(CC6)CC(N6CCC(c8ccc9c(C%10CCC(=O)NC%10=O)nn(C)c9c8)CC6)C7)CC5)nc4c3F)c12 (centres unmarked) [Compound 112], the inhibition at 0.1 µM (KRAS-G12D protein; [1]) was over 60%, the DC50 (KRAS-G12D protein) was under 10 nM and the pIC50 (Aspc-1 cells) was over 7.00.

Work on C#Cc1c(F)ccc2cc(O)cc(-c3ncc4c(N5CC6CCC(C5)N6)nc(OCC5(CN6CCC7(CC6)CC(N6CCC(c8ccc9c%10c(cccc8%10)C(=O)N9C8CCC(=O)NC8=O)CC6)C7)CC5)nc4c3F)c12 (centres unmarked) [Compound 158] yielded an inhibition at 0.05 µM (KRAS-G12D protein; 24 hours) of over 60%, a DC50 (KRAS-G12D protein) of under 10 nM and a pIC50 (Aspc-1 cells) of over 7.00.
